Laboratory results published in patent US20230085307A1, “PYRIDAZINONE COMPOUND AND HERBICIDE” (NISSAN CHEMICAL CORPORATION, priority 2019, published 2023).

Assays:
chickweed [1] = experiment: Test Example 5: herbicidal effect by foliage application, plastic box (Table 20, symbol P); assay type: in vivo, common chickweed (Stellaria media); settings: foliage application, 320 g/ha, three weeks after application
Outline: (§1)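 Foliar spray test: emulsion formulation diluted in water to a set application rate, sprayed onto 14-day-old plants raised in diluvial soil at 25° C to 30° C under glass. Both herbicidal effect and crop effect rated visually three weeks later.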

blackgrass = experiment: Test Example 4: herbicidal effect by soil treatment (Table 19, symbol J); assay type: in vivo, blackgrass (Alopecurus myosuroides); settings: amount of applied herbicide 320 g/ha
Outline: (§2)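 Herbicidal effect was rated 3 weeks after treatment, using the scoring criteria of an earlier test. The compound, formulated as an emulsion and diluted in water to a set herbicide amount, had been sprayed uniformly on soil over freshly sown seeds. Growth took place in a greenhouse at 25° C. to 30° C.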

false cleavers [2] = experiment: Test Example 5: herbicidal effect by foliage application, plastic box (Table 20, symbol Q); assay type: in vivo, false cleavers (Galium spurium); settings: foliage application, 320 g/ha, three weeks after application
Outline: as §1

chickweed [3] = experiment: Test Example 4: herbicidal effect by soil treatment (Table 19, symbol P); assay type: in vivo, common chickweed (Stellaria media); settings: amount of applied herbicide 320 g/ha
Outline: as §2

lambsquarters [4] = experiment: Test Example 5: herbicidal effect by foliage application, plastic box (Table 20, symbol O); assay type: in vivo, lambsquarters (Chenopodium album); settings: foliage application, 320 g/ha, three weeks after application
Outline: as §1

Japanese bulrush = experiment: Test Example 2: herbicidal activity, application during weed generation under submerged conditions (Table 17, symbol B); assay type: in vivo, Japanese bulrush (Schoenoplectus juncoides); settings: AAH 320 g/ha; application during weed generation, submerged conditions
Outline: (§3)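 Wagner pot, alluvial soil, 4 cm flood; mixed sowing of all species; greenhouse 25° C.–30° C. Emulsifiable formulation, water-diluted to predetermined dose, applied to paddy water at 1–2 leaf stage. Effect rated at 3 wk using the earlier test's scoring criteria.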

redroot pigweed = experiment: Test Example 4: herbicidal effect by soil treatment (Table 19, symbol N); assay type: in vivo, redroot pigweed (Amaranthus retroflexus); settings: amount of applied herbicide 320 g/ha
Outline: as §2

oval-leafed pondweed [5] = experiment: Test Example 2: herbicidal activity, application during weed generation under submerged conditions (Table 17, symbol C); assay type: in vivo, oval-leafed pondweed (Monochoria vaginalis); settings: AAH 320 g/ha; application during weed generation, submerged conditions
Outline: as §3

Chinese sprangletop = experiment: Test Example 3: herbicidal effect by foliage application, Wagner pot (Table 18, symbol D); assay type: in vivo, chinese sprangletop (Leptochloa chinensis); settings: amount of applied herbicide 320 g/ha
Outline: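 Plants were sown in alluvial soil held under 0.1–0.5 cm standing water and grown 14 days in a greenhouse at 25–30 °C. An emulsifiable formulation, water-diluted to the set dose, was then sprayed onto the foliage, and effects were scored three weeks later using previously defined criteria.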

late watergrass = experiment: Test Example 2: herbicidal activity, application during weed generation under submerged conditions (Table 17, symbol A); assay type: in vivo, late watergrass (Echinochloa oryzicola); settings: AAH 320 g/ha; application during weed generation, submerged conditions
Outline: as §3

barnyard grass = experiment: Test Example 4: herbicidal effect by soil treatment (Table 19, symbol H); assay type: in vivo, barnyard grass (Echinochloa crus-galli); settings: amount of applied herbicide 320 g/ha
Outline: as §2

oval-leafed pondweed [6] = experiment: Test Example 1: herbicidal activity, application before weed generation under submerged conditions (Table 16, symbol C); assay type: in vivo, oval-leafed pondweed (Monochoria vaginalis); settings: amount of applied herbicide 320 g/ha
Outline: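 Submerged Wagner pots (alluvial soil, 4 cm water) sown with weed seeds and planted with 2.5-leaf rice seedlings; emulsifiable concentrate diluted in water applied to water surface on sowing day. Held in greenhouse at 25-30 °C; injury scored 0-5 by herbicidal rate after three weeks.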

Italian ryegrass = experiment: Test Example 5: herbicidal effect by foliage application, plastic box (Table 20, symbol K); assay type: in vivo, Italian ryegrass (Lolium multiflorum); settings: foliage application, 320 g/ha, three weeks after application
Outline: as §1

lambsquarters [7] = experiment: Test Example 4: herbicidal effect by soil treatment (Table 19, symbol O); assay type: in vivo, lambsquarters (Chenopodium album); settings: amount of applied herbicide 320 g/ha
Outline: as §2

false cleavers [8] = experiment: Test Example 4: herbicidal effect by soil treatment (Table 19, symbol Q); assay type: in vivo, false cleavers (Galium spurium); settings: amount of applied herbicide 320 g/ha
Outline: as §2

persian speedwell = experiment: Test Example 5: herbicidal effect by foliage application, plastic box (Table 20, symbol R); assay type: in vivo, Persian speedwell (Veronica persica); settings: foliage application, 320 g/ha, three weeks after application
Outline: as §1

wild oat = experiment: Test Example 4: herbicidal effect by soil treatment (Table 19, symbol I); assay type: in vivo, wild oat (Avena fatua); settings: amount of applied herbicide 320 g/ha
Outline: as §2

For CCCC(=O)Oc1c(C)nn(C)c(=O)c1-c1c(-c2ccc(OC)cc2)sc2cc(F)ccc12 [3-008], the “P: chickweed, herbicidal effect grade” value (chickweed [1]) was 5 (Herbicidal rate of 90% or more (almost completely withered)), the “herbicidal effect, J: blackgrass” value (blackgrass) was 0 (Herbicidal rate of 5% or less (almost no effect)) and the “Q: false cleavers, herbicidal effect grade” value (false cleavers [2]) was 4 (Herbicidal rate of 70% or more and less than 90%). The “herbicidal effect, P: chickweed” value (chickweed [3]) was 5 (Herbicidal rate of 90% or more (almost completely withered)), the “O: lambsquarters, herbicidal effect grade” value (lambsquarters [4]) was 5 (Herbicidal rate of 90% or more (almost completely withered)) and the “herbicidal effect rating, B: Japanese bulrush” value (shortened to “herbicidal effect rating, B”) (Japanese bulrush) was 2 (Herbicidal rate of 20% or more and less than 40%). The “herbicidal effect, N: redroot pigweed” value (redroot pigweed) was 5 (Herbicidal rate of 90% or more (almost completely withered)), the “herbicidal effect rating, C: oval-leafed pondweed” value (from here on “herbicidal effect rating, C”) (oval-leafed pondweed [5]) was 4 (Herbicidal rate of 70% or more and less than 90%) and the “herbicidal effect on D: Chinese sprangletop” value (“herbicidal effect on D” for short) (Chinese sprangletop) was 4 (Herbicidal rate of 70% or more and less than 90%). The “herbicidal effect rating, A: late watergrass” value (late watergrass) was 0 (Herbicidal rate of 5% or less (almost no effect)), the “herbicidal effect, H: barnyard grass” value (barnyard grass) was 0 (Herbicidal rate of 5% or less (almost no effect)) and the “Herbicidal effect, C: oval-leafed pondweed” value (shortened to “Herbicidal effect, C”) (oval-leafed pondweed [6]) was 5 (Herbicidal rate of 90% or more (almost completely withered)). The “K: Italian ryegrass, herbicidal effect grade” value (shortened to “K: Italian ryegrass”) (Italian ryegrass) was 3 (Herbicidal rate of 40% or more and less than 70%), the “herbicidal effect, O: lambsquarters” value (lambsquarters [7]) was 5 (Herbicidal rate of 90% or more (almost completely withered)) and the “herbicidal effect, Q: false cleavers” value (false cleavers [8]) was 2 (Herbicidal rate of 20% or more and less than 40%). The “R: persian speedwell, herbicidal effect grade” value (“R: persian speedwell” for short) (persian speedwell) was 5 (Herbicidal rate of 90% or more (almost completely withered)) and the “herbicidal effect, I: wild oat” value (wild oat) was 0 (Herbicidal rate of 5% or less (almost no effect)).

With COc1cc(F)ccc1-c1sc2cc(F)ccc2c1-c1c(O)c(C)nn(C)c1=O [3-009] the “P: chickweed, herbicidal effect grade” value (chickweed [1]) was 5 (Herbicidal rate of 90% or more (almost completely withered)), the “herbicidal effect, J: blackgrass” value (blackgrass) was 4 (Herbicidal rate of 70% or more and less than 90%) and the “Q: false cleavers, herbicidal effect grade” value (false cleavers [2]) was 5 (Herbicidal rate of 90% or more (almost completely withered)). The “herbicidal effect, P: chickweed” value (chickweed [3]) was 4 (Herbicidal rate of 70% or more and less than 90%), the “O: lambsquarters, herbicidal effect grade” value (lambsquarters [4]) was 5 (Herbicidal rate of 90% or more (almost completely withered)) and the “herbicidal effect rating, B” value (Japanese bulrush) was 1 (Herbicidal rate of 5% or more and less than 20%). For the same molecule, the “herbicidal effect, N: redroot pigweed” value (redroot pigweed) was 5 (Herbicidal rate of 90% or more (almost completely withered)), the “herbicidal effect rating, C” value (oval-leafed pondweed [5]) was 3 (Herbicidal rate of 40% or more and less than 70%) and the “herbicidal effect on D” value (Chinese sprangletop) was 5 (Herbicidal rate of 90% or more (almost completely withered)). For the same molecule, the “herbicidal effect rating, A: late watergrass” value (late watergrass) was 0 (Herbicidal rate of 5% or less (almost no effect)), the “herbicidal effect, H: barnyard grass” value (barnyard grass) was 5 (Herbicidal rate of 90% or more (almost completely withered)) and the “Herbicidal effect, C” value (oval-leafed pondweed [6]) was 1 (Herbicidal rate of 5% or more and less than 20%). For the same molecule, the “K: Italian ryegrass” value (Italian ryegrass) was 5 (Herbicidal rate of 90% or more (almost completely withered)), the “herbicidal effect, O: lambsquarters” value (lambsquarters [7]) was 5 (Herbicidal rate of 90% or more (almost completely withered)) and the “herbicidal effect, Q: false cleavers” value (false cleavers [8]) was 5 (Herbicidal rate of 90% or more (almost completely withered)). The “R: persian speedwell” value (persian speedwell) was 5 (Herbicidal rate of 90% or more (almost completely withered)) and the “herbicidal effect, I: wild oat” value (wild oat) was 4 (Herbicidal rate of 70% or more and less than 90%).

For CCOc1cc(F)ccc1-c1sc2cc(F)ccc2c1-c1c(O)c(C)nn(C)c1=O [3-011], the “P: chickweed, herbicidal effect grade” value (chickweed [1]) was 5 (Herbicidal rate of 90% or more (almost completely withered)), the “herbicidal effect, J: blackgrass” value (blackgrass) was 5 (Herbicidal rate of 90% or more (almost completely withered)) and the “Q: false cleavers, herbicidal effect grade” value (false cleavers [2]) was 5 (Herbicidal rate of 90% or more (almost completely withered)). For the same molecule, the “herbicidal effect, P: chickweed” value (chickweed [3]) was 4 (Herbicidal rate of 70% or more and less than 90%), the “O: lambsquarters, herbicidal effect grade” value (lambsquarters [4]) was 5 (Herbicidal rate of 90% or more (almost completely withered)) and the “herbicidal effect rating, B” value (Japanese bulrush) was 3 (Herbicidal rate of 40% or more and less than 70%). For the same molecule, the “herbicidal effect, N: redroot pigweed” value (redroot pigweed) was 5 (Herbicidal rate of 90% or more (almost completely withered)), the “herbicidal effect rating, C” value (oval-leafed pondweed [5]) was 4 (Herbicidal rate of 70% or more and less than 90%) and the “herbicidal effect on D” value (Chinese sprangletop) was 4 (Herbicidal rate of 70% or more and less than 90%). The “herbicidal effect rating, A: late watergrass” value (late watergrass) was 3 (Herbicidal rate of 40% or more and less than 70%), the “herbicidal effect, H: barnyard grass” value (barnyard grass) was 5 (Herbicidal rate of 90% or more (almost completely withered)) and the “Herbicidal effect, C” value (oval-leafed pondweed [6]) was 3 (Herbicidal rate of 40% or more and less than 70%). The “K: Italian ryegrass” value (Italian ryegrass) was 5 (Herbicidal rate of 90% or more (almost completely withered)), the “herbicidal effect, O: lambsquarters” value (lambsquarters [7]) was 5 (Herbicidal rate of 90% or more (almost completely withered)) and the “herbicidal effect, Q: false cleavers” value (false cleavers [8]) was 5 (Herbicidal rate of 90% or more (almost completely withered)). The “R: persian speedwell” value (persian speedwell) was 5 (Herbicidal rate of 90% or more (almost completely withered)) and the “herbicidal effect, I: wild oat” value (wild oat) was 4 (Herbicidal rate of 70% or more and less than 90%).

For CCCC(=O)Oc1c(C)nn(C)c(=O)c1-c1c(-c2ccc(F)cc2OCC)sc2cc(F)ccc12 [3-012], the “P: chickweed, herbicidal effect grade” value (chickweed [1]) was 5 (Herbicidal rate of 90% or more (almost completely withered)), the “herbicidal effect, J: blackgrass” value (blackgrass) was 4 (Herbicidal rate of 70% or more and less than 90%) and the “Q: false cleavers, herbicidal effect grade” value (false cleavers [2]) was 5 (Herbicidal rate of 90% or more (almost completely withered)). The “herbicidal effect, P: chickweed” value (chickweed [3]) was 4 (Herbicidal rate of 70% or more and less than 90%), the “O: lambsquarters, herbicidal effect grade” value (lambsquarters [4]) was 4 (Herbicidal rate of 70% or more and less than 90%) and the “herbicidal effect rating, B” value (Japanese bulrush) was 5 (Herbicidal rate of 90% or more (almost completely withered)). The “herbicidal effect, N: redroot pigweed” value (redroot pigweed) was 4 (Herbicidal rate of 70% or more and less than 90%), the “herbicidal effect rating, C” value (oval-leafed pondweed [5]) was 4 (Herbicidal rate of 70% or more and less than 90%) and the “herbicidal effect on D” value (Chinese sprangletop) was 2 (Herbicidal rate of 20% or more and less than 40%). The “herbicidal effect rating, A: late watergrass” value (late watergrass) was 4 (Herbicidal rate of 70% or more and less than 90%), the “herbicidal effect, H: barnyard grass” value (barnyard grass) was 3 (Herbicidal rate of 40% or more and less than 70%) and the “Herbicidal effect, C” value (oval-leafed pondweed [6]) was 4 (Herbicidal rate of 70% or more and less than 90%). The “K: Italian ryegrass” value (Italian ryegrass) was 4 (Herbicidal rate of 70% or more and less than 90%), the “herbicidal effect, O: lambsquarters” value (lambsquarters [7]) was 3 (Herbicidal rate of 40% or more and less than 70%) and the “herbicidal effect, Q: false cleavers” value (false cleavers [8]) was 5 (Herbicidal rate of 90% or more (almost completely withered)). For the same molecule, the “R: persian speedwell” value (persian speedwell) was 5 (Herbicidal rate of 90% or more (almost completely withered)) and the “herbicidal effect, I: wild oat” value (wild oat) was 3 (Herbicidal rate of 40% or more and less than 70%).
